{"source": "paper PMC12844998", "about": "“Bridging the Knowledge Gap in Harmaline’s Pharmacological Properties: A Focus on Thermodynamics and Kinetics” (Pharmaceutics, 2025)", "key": {"[1]": {"assay": "Transfer thermodynamics from van't Hoff plots of distribution coefficients", "assay_type": "physicochemical", "details": "298.15 K", "description": "(§1) The calculation of the thermodynamic parameters for the solubility and distribution processes was based on component concentrations expressed in terms of mole fractions. The standard calculation procedure and the respective equations are presented in the Supplementary Materials (Section S4)."}, "[2]": {"assay": "Kinetics of distribution in OctOH/pH 7.4 and IPM/pH 7.4 (1-5 h)", "assay_type": "physicochemical", "experimental": "Distribution coefficients were measured at 1, 2, 3, 4, and 5 h in OctOH/pH 7.4 and IPM/pH 7.4 at 310.15 K to assess the kinetics of HML distribution."}, "MDCK cells": {"tested_on": "MDCK cells", "assay": "Literature permeability across MDCK cells", "assay_type": "in vitro ADME", "details": "literature MDCK (ref 12) vs PP Papp"}, "[3]": {"assay": "Permeability in Franz diffusion cell, regenerated cellulose membrane", "assay_type": "in vitro ADME", "details": "RC membrane, pH 7.4, 310.15 K", "experimental": "(§2) Permeability coefficients were measured in a vertical type Franz diffusion cell (PermeGear, Inc., Hellertown, PA, USA) maintained at 37 °C, with an effective diffusion area of 0.785 cm^2. The volumes of the donor (lower) and the acceptor (upper) compartments were 7 mL and 2 mL, respectively. Three artificial membranes were used in the study: Regenerated cellulose (RC): Standard Grade RC Dialysis Membrane with a molecular weight cut-off (MWCO) of 12–14 kDa and a flat width of 45 mm; PermeaPad barrier (PP): A commercially available barrier (PHABIOC, Fritz-Souchon-Str. 27, 32339 Espelkamp, Germany; www.innome.de), originally proposed by di Cagno et al.; Polydimethylsiloxane-polycarbonate membrane (PDS): A “Carbosil” membrane composed of 55% polydimethylsiloxane and 45% polycarbonate (PENTAMED, Moscow, Russia; https://medpolymer.ru/).\n(§3) A solution of HML in pH 7.4 (7 mL) was placed into the donor chamber of a Franz cell. The acceptor compartment was filled with pure buffer pH 7.4 (1 mL). Over a period of 5 h, 0.5 mL samples were withdrawn from the acceptor compartment at 30 min intervals and replaced with an equal volume of fresh pH 7.4 buffer. The sample concentrations were determined by UV-Vis spectroscopy (Cary-50, Varian, Palo Alto, CA, USA; Software Version 3.00 (339)) or by HPLC (for experiments involving the polydimethylsiloxane-polycarbonate membrane). The cumulative amount of drug permeated through the membrane was plotted as a function of time. The flux was determined from the slope of the linear portion of each curve. The permeability coefficient was calculated using the following equation:(4) Papp=J/C0 where J is the flux, and C0 is the concentration of HML in the donor solution. A reverse dialysis setup was employed, where the lower chamber served as the donor compartment and was filled with the drug solution. Sink conditions were maintained in all experiments, meaning the drug concentration in the acceptor compartment never exceeded 10% of its concentration in the donor compartment at any time according the recommendations proposed in [18]."}, "[4]": {"assay": "Dissolution thermodynamics from van't Hoff plots of solubility", "assay_type": "physicochemical", "description": "as §1"}, "[5]": {"assay": "Permeability in Franz diffusion cell, PermeaPad barrier", "assay_type": "in vitro ADME", "experimental": "as §2, §3"}, "[6]": {"assay": "Permeability in Franz diffusion cell, polydimethylsiloxane-polycarbonate membrane", "assay_type": "in vitro ADME", "details": "pH 7.4, 310.15 K", "experimental": "as §2, §3\nSamples from the acceptor compartment after permeation through the PDS membrane were analyzed by HPLC using a Shimadzu Prominence LC-20 AD system(Shimadzu Corporation, Kyoto, Japan) equipped with a PDA detector and a Luna® C-18 column (150 × 4.6 mm i.d., 5 μm particle size, 100 Å pore size). The column temperature was maintained at 40 °C. The mobile phase consisted of acetonitrile and water (containing 0.1% trifluoroacetic acid) in a 20:80 (v/v) ratio. An isocratic elution was performed at a flow rate of 1.0 mL·min^−1. The injection volume was 20 μL. The analytes were detected by UV at 373 nm, with a retention time of approximately 4.5 min. […]"}, "[7]": {"assay": "Equilibrium solubility, shake-flask method", "assay_type": "physicochemical", "details": "for solubility at 24 h: Hex, organic solvent or mixture, thermodynamic from solid, value given as S2×10^5, read-out: solubility S2∙105", "experimental": "The equilibrium solubility of HML was measured by the shake-flask method over a wide temperature range of 293.15–313.15 K. Briefly, glass vials containing the respective solvent were charged with an excess of the drug. The vials were shaken at a predetermined temperature for 24 h—a duration previously established as sufficient to reach equilibrium between the solid and liquid phases. Following shaking, samples were equilibrated for ~5 h to prevent supersaturation and then centrifuged (10,000 rpm, 10 min; Biofuge pico, Thermo Electron LED GmbH, Osterode am Harz, Germany) at constant temperature. Concentrations were determined spectrophotometrically at 373 nm using a Cary-50 instrument (Varian, Palo Alto, CA, USA; software version 3.00 (339)) based on calibration curves. Data are presented as the mean ± standard deviation (or standard error) of at least three independent replicates. The error bars represent the standard deviation (SD), which ranged from 2% to 4% of the mean."}, "[8]": {"details": "undefined temperature, cited from earlier work"}, "[9]": {"details": "pH 7.4, comparison with literature ref 19"}}, "note": "Values joined by “and” are separate entries in the source; they are usually repeats but may differ in a detail not shown here. Equal values may be shown once. “Also recorded” adds a separate entry of the source. Read-outs that look alike come from different tables or passages of the source."}
{"smiles": "COc1ccc2c3c([nH]c2c1)C(C)=NCC3", "note": "[HML, Harmaline]", "values": [{"measurement": "TΔStr0", "setting": "[1]; Hex→OctOH", "value": "21.4±1.9", "unit": "kJꞏmol-1"}, {"measurement": "distribution coefficient Dx (mole fraction scale)", "setting": "[1]; Hex→OctOH", "value": 993.14}, {"measurement": "enthalpy contribution to transfer (ΔHtr0 share)", "setting": "[1]; Hex→OctOH", "value": 16.7, "unit": "%"}, {"measurement": "entropy contribution to transfer (TΔStr0 share)", "setting": "[1]; Hex→OctOH", "value": 83.3, "unit": "%"}, {"measurement": "ΔGtr0", "setting": "[1]; Hex→OctOH", "value": "-17.1±0.3 kJꞏmol-1 and −17.1 kJꞏmol-1"}, {"measurement": "ΔHtr0", "setting": "[1]; Hex→OctOH", "value": "4.3±0.3", "unit": "kJꞏmol-1"}, {"measurement": "TΔStr0", "setting": "[1]; pH 7.4→Hex", "value": "23.4±1.0", "unit": "kJꞏmol-1"}, {"measurement": "enthalpy contribution to transfer (ΔHtr0 share)", "setting": "[1]; pH 7.4→Hex", "value": 55.3, "unit": "%"}, {"measurement": "entropy contribution to transfer (TΔStr0 share)", "setting": "[1]; pH 7.4→Hex", "value": 44.7, "unit": "%"}, {"measurement": "ΔHtr0", "setting": "[1]; pH 7.4→Hex", "value": "28.9±0.7", "unit": "kJꞏmol-1"}, {"measurement": "TΔStr0", "setting": "[1]; pH 7.4→OctOH", "value": "44.4±1.3", "unit": "kJꞏmol-1"}, {"measurement": "distribution coefficient Dx (mole fraction scale)", "setting": "[1]; pH 7.4→OctOH", "value": 103.10}, {"measurement": "enthalpy contribution to transfer (ΔHtr0 share)", "setting": "[1]; pH 7.4→OctOH", "value": 42.6, "unit": "%"}, {"measurement": "entropy contribution to transfer (TΔStr0 share)", "setting": "[1]; pH 7.4→OctOH", "value": 57.4, "unit": "%"}, {"measurement": "ΔGtr0", "setting": "[1]; pH 7.4→OctOH", "value": "-11.5±0.2 kJꞏmol-1 and −11.5 kJꞏmol-1"}, {"measurement": "ΔHtr0", "setting": "[1]; pH 7.4→OctOH", "value": "32.9±0.3", "unit": "kJꞏmol-1"}, {"measurement": "fold-change between saturation and 5 h distribution coefficients", "setting": "[2]; IPM/pH 7.4, 310.15 K", "value": 1.36, "unit": "fold"}, {"measurement": "increase of distribution from 1 to 5 h", "setting": "[2]; IPM/pH 7.4, 310.15 K", "value": 1.3, "unit": "fold"}, {"measurement": "fold-change between saturation and 5 h distribution coefficients", "setting": "[2]; OctOH/pH 7.4, 310.15 K", "value": 1.38, "unit": "fold"}, {"measurement": "increase of distribution from 1 to 5 h", "setting": "[2]; OctOH/pH 7.4, 310.15 K", "value": 1.2, "unit": "fold"}, {"measurement": "MDCK permeability coefficient, fold lower than PermeaPad result", "setting": "MDCK cells", "value": "up to 2.3 fold"}, {"measurement": "logPapp", "setting": "[3]", "value": "−4.31"}, {"measurement": "steady state flux J", "setting": "[3]; C0 2.11 × 10^−3 M", "value": "1.04 × 10^−4 µmol∙cm^−2∙s^−1"}, {"measurement": "Papp at 5 h", "setting": "[3]; read-out: permeability coefficient Papp", "value": 49.3, "unit": "×10⁻⁶ cm/s"}, {"measurement": "Gibbs energy of solution ΔGsol0", "setting": "[4]; Hex, 298.15 K", "value": 28.6, "unit": "kJ/mol"}, {"measurement": "enthalpy share of the total free energy change of dissolution", "setting": "[4]; Hex, 298.15 K", "value": 84, "unit": "%"}, {"measurement": "entropy share of the total free energy change of dissolution", "setting": "[4]; Hex, 298.15 K", "value": 16, "unit": "%"}, {"measurement": "Gibbs energy of solution ΔGsol0", "setting": "[4]; OctOH, 298.15 K", "value": 12.1, "unit": "kJ/mol"}, {"measurement": "Gibbs energy of solution ΔGsol0", "setting": "[4]; pH 7.4, 298.15 K", "value": 23.7, "unit": "kJ/mol"}, {"measurement": "logPapp", "setting": "[5]; PP barrier, pH 7.4, 310.15 K", "value": "−4.43"}, {"measurement": "steady state flux J", "setting": "[5]; PP barrier, pH 7.4, 310.15 K, C0 2.23 × 10^−3 M", "value": "8.28 × 10^−5 µmol∙cm^−2∙s^−1"}, {"measurement": "Papp at 5 h", "setting": "[5]; PP barrier, pH 7.4, 310.15 K, read-out: permeability coefficient Papp", "value": 37.1, "unit": "×10⁻⁶ cm/s"}, {"measurement": "permeability classification (Di Cagno et al.)", "setting": "[5]; PP barrier, high permeability if Papp > 2.04∙10^−5 cm∙s^−1", "value": "highly permeable; also recorded: high permeated substance"}, {"measurement": "permeability coefficient for PP, fold lower than for RC", "setting": "[5]; pH 7.4, 310.15 K", "value": 1.3, "unit": "fold"}, {"measurement": "logPapp", "setting": "[6]; PDS membrane", "value": "−6.78"}, {"measurement": "steady state flux J", "setting": "[6]; PDS membrane, C0 2.62 × 10^−3 M", "value": "4.31 × 10^−7 µmol∙cm^−2∙s^−1"}, {"measurement": "Papp at 5 h", "setting": "[6]; PDS membrane, read-out: permeability coefficient Papp", "value": 0.165, "unit": "×10⁻⁶ cm/s"}, {"measurement": "permeability coefficient for PDS, fold lower than for RC", "setting": "[6]", "value": 299, "unit": "fold"}, {"measurement": "solubility at pH 2.0 relative to pH 7.4 (higher)", "setting": "[7]; 310.15 K", "value": 2.2, "unit": "fold"}, {"measurement": "solubility at 24 h", "setting": "[7]; 293.15 K", "value": "59.2 ± 1.3", "unit": "µM"}, {"measurement": "solubility at 24 h", "setting": "[7]; 295.15 K", "value": "65 ± 1.1", "unit": "µM"}, {"measurement": "solubility at 24 h", "setting": "[7]; 298.15 K", "value": "75.3 ± 1.2", "unit": "µM"}, {"measurement": "solubility at 24 h", "setting": "[7]; 303.15 K", "value": "93.2 ± 1.7", "unit": "µM"}, {"measurement": "solubility at 24 h", "setting": "[7]; 308.15 K", "value": "113.9 ± 0.7", "unit": "µM"}, {"measurement": "solubility at 24 h", "setting": "[7]; 310.15 K", "value": "130 ± 3.2", "unit": "µM"}, {"measurement": "solubility at 24 h", "setting": "[7]; 313.15 K", "value": "145 ± 4.1", "unit": "µM"}, {"measurement": "solubility at pH 7.4 relative to reserpine (more soluble)", "setting": "[7]; [9]", "value": 42, "unit": "fold"}, {"measurement": "solubility at pH 7.4 relative to vincamine (more soluble)", "setting": "[7]; [9]", "value": 44, "unit": "fold"}, {"measurement": "distribution coefficient n-heptane/aqueous (pH 7.4)", "setting": "[8]; ref 19", "value": 0.05}, {"measurement": "distribution coefficient n-heptane/aqueous (pH 7.4)", "setting": "[8]; ref 20", "value": 0.11}]}
